Test results: US20110243844A1, “SULFONAMIDE DERIVATIVE METABOTROPIC GLUTAMATE R4 LIGANDS” (priority 2008, published 2011)

What was measured:
mGluR4 [1] = target: T1, mGluR4 (Homo sapiens, UniProt Q14833); assay: Fluorescent Imaging Plate Reader (FLIPR) assay for mGluR4 potentiators; type: cell-based; design: expressed in transfected cells; conditions: for EC50: inflection point of curve, potentiation of EC10 concentration of L-AP4 (30 nM), read-out: mGluR4 FLIPR Potency; for Emax: maximal activity relative to response with saturating concentration (10 uM) of agonist L-AP4, read-out: mGluR4 FLIPR % Max Efficacy
Procedure: Fluorescent Imaging Plate Reader (FLIPR) Assay for mGluR4 Potentiators Cells are grown in Corning […] cm^2 flasks in DMEM growth media at 37° C. and 5% CO2. Growth media contains: […] The day prior to the experiment the cells were plated in growth medium (minus glutamine) at 50K cells/well into Becton-Dickinson 384-well PDL-coated plates using a Labsystems Multidrop (0.1 ml/well). The cells are grown overnight at 37° C. and 6% CO2. The following day, the cells are washed with Assay Buffer at 37° C. using a Skatron EMBLA cell washer (3×100 μl, aspiration 3 mm from bottom will leave 30 μl of buffer in each well). Assay buffer is Hanks balanced salt solution with 20 mM HEPES, 2.5 mM probenecid and 0.1% BSA. Fluorescent dye, 30 μl of the diluted Fluo-4-AM, is added to each well of the plate. […] The assay plates are placed back into the 6% CO2 incubator and incubated at 37° C. for 60 min. The 384-well plates are washed with Assay Buffer at 37° C. on using a cell washer (3×100 μl, aspiration 3 mm from bottom, will leave 30 μl of buffer in each well). The experimental run is initiated and after 30 sec a dose of test compound is applied. The fluorescent response elicited by test compound is monitored for 5 min, any positive response detected at this stage is attributed to agonist properties of the test compound. […] Controls for the assay include a no compound control, a positive control which is a saturating concentration, 10 uM, of the agonist L-AP4. A 10 point dose response, with either 2-fold or 3-fold dilution steps, is performed and curve fitting algorithms, suitable for a sigmoidal dose response relationship, are used to fit the data. The inflection point of the curve provides a measure of compound potency. A comparison of the maximal level of activity achieved for a test compound, relative to the response achieved with a saturating concentration of the agonist L-AP4 provides a measure of compound efficacy.

mGluR4 [2] = target: T1, mGluR4; assay: mGluR4 binding assay (filtration, [3H] radiotracer displacement, in presence of L-AP4); design: expressed in transfected cells; host or cells: CHO cells; conditions: membranes from CHO cells expressing human mGluR4; 20 uM L-AP4; 7 nM radiotracer; 1 hour at room temperature
Procedure: Membranes were prepared from CHO cells expressing the human mGluR4 receptor. Cells were harvested using trypsin and then washed in assay buffer, assay buffer contains 50 mM HEPES, 1 mM EDTA and protease inhibitors (Boehringer Mannheim catalog #1 836 170). Harvested cells were pelleted by centrifugation and stored at −80° C. for a minimum of 12 hours. Cells were resuspended in assay buffer and lysed by a polytron, a low speed spin, 2000×g for 10 min, was used to recover unbroken cells for additional treatment using the polytron. The cleared supernatant from the low speed spins was subjected to a high speed spin, 96,000×g for 1 hour. The membrane pellet from the high speed spin was resuspended in assay buffer and used in the mGluR4 binding assay.
The binding assay follows a standard filtration binding paradigm. The binding buffer consists of 20 mM HEPES, 100 mM NaCl and 3 mM MgCl2, the pH of the buffer is 7.4. The assay is performed in a 96-well format with each well containing test compound, 25 to 50 ug of membrane protein, 20 uM L-AP4, and 7 nM radiotracer, [^3H]-N-[3-Chloro-4-(4-methyl-1,3-dioxo-1,3-dihydro-2H-isoindol-2-yl)phenyl]pyridine-2-carboxamide, which is disclosed in commonly owned U.S. patent application docket no. MRL-NOP-00030-US-PSP, filed contemporaneously with this application.
The binding reaction is incubated at room temperature for 1 hour, and then is passed through GF/B filter that was presoaked with 0.5% PEI. The cell membranes are collected on the filter and then washed five times with ˜5 ml ice cold binding buffer that contains 0.01% BSA. The washed filter plate is dried for 30 minutes at 37° C., scintillation fluid is added, and the amount of filter bound radioactivity is determined using a TopCount instrument. Total binding is determined in the absence of any test compound, but in the presence of the DMSO concentration that would result from the addition of test compound. To determine the level of non-specific binding for the radiotracer [^3H]-N-[3-Chloro-4-(4-methyl-1,3-dioxo-1,3-dihydro-2H-isoindol-2-yl)phenyl]pyridine-2-carboxamide, 5 uM of unlabeled […]N-[3-Chloro-4-(4-methyl-1,3-dioxo-1,3-dihydro-2H-isoindol-2-yl)phenyl]pyridine-2-carboxamide, is added to determine the level of non-specific binding.
A 10-point dose response, with either 2-fold or 3-fold dilution steps, is performed and curve fitting algorithms, suitable for a sigmoidal dose response relationship, are used to fit the data. The inflection point of the curve, or IC50, provides a measure of the affinity of a test compound for the mGluR4 receptor.

T1 sequence (Q14833 33-912): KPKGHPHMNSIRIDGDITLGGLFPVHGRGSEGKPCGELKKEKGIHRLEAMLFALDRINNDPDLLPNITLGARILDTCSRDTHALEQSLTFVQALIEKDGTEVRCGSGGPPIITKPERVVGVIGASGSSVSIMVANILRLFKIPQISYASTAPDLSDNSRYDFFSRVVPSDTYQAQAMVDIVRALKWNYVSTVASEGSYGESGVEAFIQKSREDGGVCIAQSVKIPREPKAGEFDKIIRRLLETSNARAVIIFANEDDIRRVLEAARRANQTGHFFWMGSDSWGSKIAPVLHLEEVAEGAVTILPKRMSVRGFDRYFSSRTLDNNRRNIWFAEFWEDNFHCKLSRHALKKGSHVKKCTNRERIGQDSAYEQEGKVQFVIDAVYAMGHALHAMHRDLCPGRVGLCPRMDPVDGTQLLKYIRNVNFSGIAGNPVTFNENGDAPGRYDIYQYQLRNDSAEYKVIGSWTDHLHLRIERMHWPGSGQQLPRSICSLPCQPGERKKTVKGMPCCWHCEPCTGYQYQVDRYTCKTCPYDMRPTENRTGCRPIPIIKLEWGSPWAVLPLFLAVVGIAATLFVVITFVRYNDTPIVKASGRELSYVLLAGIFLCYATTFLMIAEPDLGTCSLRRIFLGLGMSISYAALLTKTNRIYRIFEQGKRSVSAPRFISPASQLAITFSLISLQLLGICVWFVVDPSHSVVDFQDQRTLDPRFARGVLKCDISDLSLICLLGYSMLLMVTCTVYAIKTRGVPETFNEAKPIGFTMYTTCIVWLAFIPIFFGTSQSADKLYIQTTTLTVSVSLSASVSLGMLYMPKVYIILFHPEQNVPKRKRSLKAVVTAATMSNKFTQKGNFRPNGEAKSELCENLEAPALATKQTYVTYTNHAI

Row | SMILES | EC50 (mGluR4 [1]) [µM] | Emax (mGluR4 [1]) [%] | IC50 (mGluR4 [2]) [µM]
1 | O=C(Nc1ccc(S(=O)(=O)Nc2ccccc2Cl)cc1)c1ccccn1 [Example 1, N-(4-{[(2-Chlorophenyl)amino]sulfonyl}phenyl)pyridine-2-carboxamide] | 0.162 | 111 | 0.033
2 | COc1cc(NC(=O)c2ccccn2)ccc1S(=O)(=O)Nc1ccccc1 [Example 6] | 3.94 | 70 | 6.08
3 | O=C(Nc1ccc(S(=O)(=O)Nc2ccccc2Cc2ccccc2)cc1)c1ccccn1 [Example 41] | 0.48 | 124 | 0.182

Other lines, results leading:

Row | EC50 (mGluR4 [1]) [µM] | Emax (mGluR4 [1]) [%] | IC50 (mGluR4 [2]) [µM] | SMILES
4 | 1.35 | 93 | 1.1 | Cc1ccc(NS(=O)(=O)c2ccc(NC(=O)c3ccccn3)cc2)cc1 [Example 18]
5 | 0.134 | 110 | 0.141 | O=C(Nc1ccc(S(=O)(=O)Nc2ccccc2Br)cc1)c1ccccn1 [Example 30]
